Assay results published in ChEMBL document CHEMBL1151110, “Biosynthesis of staurosporine, 1. 1H- and 13C-NMR assignments” (J Nat Prod, 1988).

Test: Acute toxicity in ip dosed mouse
Assay type: organism-based
Details: in vivo

With `CN[C@@H]1C[C@H]2O[C@@](C)([C@@H]1OC)n1c3ccccc3c3c4c(c5c6ccccc6n2c5c31)C(=O)NC4.Cl` as the molecule, how does the LD50 read?
Its LD50 is 6.6 mg/kg.
